Here are results for eight compounds from ChEMBL document CHEMBL2439984, “Design, synthesis, and bioevaluation of viral 3C and 3C-like protease inhibitors” (Bioorg Med Chem Lett, 2013).

One series deals with Norwalk virus. In words: Antiviral activity against Norwalk virus infected in human HG23 cells. Type of series: functional, cell-based.
Series [1] is described as follows: Inhibition of Human rhinovirus sp. […] protease by FRET assay.
Series [2] addresses Prothrombin (Homo sapiens) (UniProt P00734). In words: Inhibition of thrombin (unknown origin) using N-p-tosyl-Gly-Pro-Lys-pNa as substrate up to 10 uM preincubated for 30 mins prior to substrate addition measured for 120 seconds by spectrophotometric analysis.
The next series has as its system Human coronavirus 229E. In words: Antiviral activity against Coronavirus 229E infected in human […] cells. Type of series: functional, organism-based.
Series [3] in a line: Cytotoxicity against human HG23 cells after 72 hrs by crystal violet staining-based assay. It is filed as cell-based.
The species named for another series is Homo sapiens. In words: Inhibition of alpha-chymotrypsin (unknown origin) using Suc-Ala-Ala-Pro-Phe as substrate up to 10 uM preincubated for 10 mins prior to substrate addition measured for 60 seconds by spectrophotometric analysis.
The target of another series is Trypsin (Homo sapiens) (UniProt P07477+P07478+P35030). In words: Inhibition of trypsin (unknown origin) using BAPNA as substrate up to 10 uM preincubated for 10 mins prior to substrate addition measured for 300 seconds by spectrophotometric analysis. Type of series: protein assay.
A short description of series [4]: Antiviral activity against Human rhinovirus 18 infected in human […] cells. Type of series: functional, cell-based, Human rhinovirus A18. The note with it: Rhinovirus A.
Series [5] in a line: Inhibition of Norovirus MD145 protease 3C by FRET assay.
Series [6] deals with T1, Neutrophil elastase (Homo sapiens) (UniProt P08246).
T1 sequence (whole entry): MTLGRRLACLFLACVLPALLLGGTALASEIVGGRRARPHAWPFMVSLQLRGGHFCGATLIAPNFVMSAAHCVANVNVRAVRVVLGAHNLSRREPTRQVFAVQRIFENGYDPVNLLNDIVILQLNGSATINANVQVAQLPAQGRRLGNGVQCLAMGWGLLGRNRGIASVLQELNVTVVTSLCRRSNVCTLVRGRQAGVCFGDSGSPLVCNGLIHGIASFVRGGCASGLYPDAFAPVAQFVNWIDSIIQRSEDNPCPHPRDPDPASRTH
In words: Inhibition of human neutrophil elastase using MeO-Suc-Ala-Ala-Pro-Val-pNa as substrate up to 10 uM preincubated for 30 mins prior to substrate addition measured for 120 seconds by spectrophotometric analysis.

Series [7] can be described thus: Antiviral activity against Murine norovirus 1 infected in human […] cells. It is filed as functional, cell-based. As to conditions: Norwalk virus.
The target of series [8] is Replicase polyprotein 1ab (Severe acute respiratory syndrome-related coronavirus, UniProt P0C6X7). In words: Inhibition of SARS coronavirus 3C-like protease by FRET assay.
The nature of series [9]: Inhibition of SARS coronavirus protease 3C by FRET assay. Also noted: species or system Severe acute respiratory syndrome-related coronavirus.

Calls of active or inactive are those of the source. The calls are words filed in the database; no cut-off is given here.

One may read the EC50 as the concentration that produces a half-maximal response. The compound `CC(C)C[C@H](NC(=O)[C@H](Cc1ccc(-c2ccccc2)cc1)NC(=O)OCc1ccccc1)C(=O)N[C@H](C=O)C[C@@H]1CCNC1=O` yielded an EC50 in the series on Norwalk virus of 50 nM.

In turn, `CC(C)C[C@H](NC(=O)[C@H](Cc1ccccc1)NC(=O)OCc1ccccc1)C(=O)N[C@H](C=O)C[C@@H]1CCNC1=O` had an EC50 in the series on Norwalk virus of 60 nM.

The term IC50 denotes the concentration at which inhibition is half-maximal. Higher therefore signals a need for much substance. As usually defined, the CC50 is the concentration giving 50% cytotoxicity. Regarding `CC(C)C[C@H](NC(=O)[C@H](Cc1cccc2ccccc12)NC(=O)OCc1ccccc1)C(=O)N[C@H](C=O)C[C@@H]1CCNC1=O`, the IC50 in series [1] stood at 150 nM; in [5] it was 510 nM; in series [8], 230 nM. Also, the inhibition result (in series [2]; in the series filed under Homo sapiens; on Trypsin (Homo sapiens); in [6]) was “inactive” in each case. Moreover, the EC50 in the series with Human coronavirus 229E came out at 200 nM; in the series with Norwalk virus, 40 nM; in series [4], 15 nM; in series [7] it was 600 nM. In addition, the CC50 at 72 h in series [3] came to 87000 nM.

For the compound `CCOP(=O)(OCC)C(O)[C@H](C[C@@H]1CCNC1=O)NC(=O)[C@H](CC(C)C)NC(=O)[C@H](Cc1cccc2ccccc12)NC(=O)OCc1ccccc1` (stereo partly specified), it took 100 nM to reach a half-maximal effect in the series on Norwalk virus (EC50).

`CC(C)C[C@H](NC(=O)[C@H](Cc1ccc2ccccc2c1)NC(=O)OCc1ccccc1)C(=O)N[C@H](C=O)C[C@@H]1CCNC1=O` showed an EC50 in the series with Norwalk virus of 80 nM.

Turning to `CC(C)C[C@H](NC(=O)[C@H](Cc1cccc2ccccc12)NC(=O)OCc1ccccc1)C(=O)N[C@@H](C[C@@H]1CCNC1=O)C(O)S(=O)(=O)O` (stereo partly specified), the EC50 with Norwalk virus amounted to 40 nM.

The compound `CC(C)C[C@H](NC(=O)[C@@H](Cc1cccc2ccccc12)NC(=O)OCc1ccccc1)C(=O)N[C@H](C=O)C[C@@H]1CCNC1=O` came in with an EC50 in the series with Norwalk virus of 450 nM.

For the compound `CC(C)C[C@H](NC(=O)[C@H](Cc1cccc2ccccc12)NC(=O)OCc1ccccc1)C(=O)N[C@@H](C[C@@H]1CCNC1=O)C(=O)C(=O)NC(C)C`, the IC50 in series [1] worked out at 120 nM; in [5], 3100 nM; in [9] it was 610 nM. Moreover, the EC50 worked out at 500 nM with Human coronavirus 229E, 4200 nM with Norwalk virus, 30 nM in [4] and 4200 nM in series [7]. In series [3], this compound came in with a CC50 at 72 h greater than 100000 nM.
